From patent US20250154202A1, “CYCLIC EPITOPE TAGS” (BIONTECH SE, priority 2022, published 2025)
Blank lines part the entries; values can stand above or below the compound they belong to. Bridge positions count the residues as written; N and C are the ends. Peptide text beside a SMILES is read from it.

Legend:
NbALFA = assay: SPR measurements of NbALFA binding (Biacore T200, multi cycle kinetics, 1:1 binding model); conditions: for Kd / ka / kd: 25° C., HBS-EP+ buffer, biotinylated NbALFA captured
Procedure: Affinity measurements were performed using a Biacore T200 (GE Healthcare, Biacore T200 control Software 3.2). […] A freshly docked Biotin CAPture chip was rehydrated overnight in the instrument (standby mode). […] The immobilization of the Nanobody was done for 180 s at 10 μL/min on FC2 followed by quenching of unbound streptavidin by 0.1 mM biocytin for 60 s and 30 μL/min on both flow cells. […] After each cycle, the surface was regenerated for 120 s with 10 μL/min using regeneration solution. All measurements were performed at 25° C. using HBS-EP+ buffer (Cytiva Europe, Cat. no BR100669). The control responses from FC1 were subtracted by the sample measurement in FC2 (FC2−FC1) followed by subtraction of the 0 nM blank injection. Resulting binding curves of this multi cycle kinetic experiment were fitted using the Biacore T200 Evaluation Software 3.2 and a 1:1 binding model.

[1] = Plasma stability, human plasma; conditions: for Conc. (% of T0) / Mean (compound concentration) / Tube 2 (compound concentration) / Tube 3 (compound concentration) / Tube 1 (compound concentration) / half-life: human plasma, 37° C.; for remaining at 2 h, 10 µM / remaining at 6 h, 10 µM: human Li-heparin plasma; for half-life: plasma
Procedure: (§1) Plasma stability measurements were performed by spiking 5 μl of a 1 mM compound stock solution in DMSO into 495 μl of human or mouse Li-heparin plasma (Innovative Research, Cat. No, IPLALIH5OML (human) and IMS-BC-N (Balb C mouse). The spiked plasma was distributed in 50 μl aliquots into capped PCR tubes for incubation at 37° C. At each time point (0, 2, 6, 24 hours*) 3*aliquots were withdrawn from the incubator. Enzymatic reactions were quenched directly after withdrawal by adding 100 μl of acetonitrile/formic acid=99/1 (v/v). Quenched samples were stored at ambient temperature until the end of the incubation period (24 hrs*). After centrifugation, the supernatant was transferred into fresh vials and analyzed by LC-MS/MS in ESI positive mode (Waters ACQUITY UPLC I-Class System (SM-FTN) with Xevo TQD triple quadrupole mass spectrometer with control software Waters MassLynx). […] Values below the limit of quantification (0.1 μM) and outliers of triplicate results were excluded from further calculations. An exponential regression curve was fitted onto the concentration results. Half-life times were calculated from the slope of the regression curve (t1/2=ln(2)/slope).
(§2) For some samples, as indicated below, the incubation time was 6 hours. The 24 hour data was measured in triplicates whereas the 6 hour data was measured in duplicates.

[2] = Plasma stability, mouse plasma; conditions: for remaining at 2 h, 10 µM / remaining at 6 h, 10 µM / remaining at 24 h, 10 µM: Balb C, Li-heparin plasma; for remaining at 2 h, 10 µM / remaining at 6 h, 10 µM / remaining at 24 h, 10 µM / half-life: mouse; for Conc. (% of T0) / Mean (compound concentration) / Tube 2 (compound concentration) / Tube 3 (compound concentration) / Tube 1 (compound concentration) / half-life: mouse plasma, 37° C.; for half-life: plasma, incubation 24 h (triplicates) or 6 h (duplicates)
Procedure: as §1, §2

anti-ALFA VHH = assay: binding affinity to the anti-ALFA VHH (log(agonist) vs. response, variable slope); conditions: for LogEC50: best-fit values, log(agonist) vs. response, variable slope; for EC50: binding to anti-ALFA VHH
[3] = Pharmacokinetic study in mouse, intravenous bolus, plasma LC-MS/MS, non-compartmental analysis; conditions: for AUC(0-inf): AUC0-inf; for AUC(0-t): AUC0-t
Procedure: C57BL/6NRj mice were obtained from Janvier Labs, France. In this study, approximately 8-week-old female mice were used.
Prior to administration into the lateral tail vein, the body weight of the animals was determined to calculate the individual volume of the injecting compound (5 mL/kg body weight). The injection, as well as the blood sampling, were carried out under short anesthesia (0.7 L/min O2, 1.7 L/min N2O, 2% Isoflurane). Blood was sampled from the retro-orbital plexus using microhematocrit capillary (Ø 0.8 mm) and collected into K3EDTA tubes, at the time points indicated in Table 10.
The plasma was separated by centrifugation (10,000×g; 10 min; 4° C.), aliquoted into microtubes and stored at −80° C.
20 μl of each plasma sample was transferred into PCR tubes. 80 μl IS (internal standard)-solution in acetonitrile+1% FA was added for protein precipitation.
The sample tubes were sealed with pierceable cap mats and vortexed. After homogenization for 5 min in an ultrasonic bath the samples were centrifuged at 3000 rpm at ambient temperature for 15 min. 1 μl supernatant was injected into the instrument for LC-MS/MS analysis. For LC-MS/MS quantification a ExionLC™ UHPLC coupled to a QTRAP® 6500+ mass spectrometer (Sciex) was used in ESI positive mode. Parameters for mass spectrometry were listed in the tables below, Chromatographic separation was achieved on a ACQUITY UPLC BEH C18 column (Waters, 1.7 μm, 2.1×50 mm).
Compound concentrations in plasma samples were calculated using a 10-point calibration curve in plasma over a concentration range of 1 to 1000 ng/ml. QC samples of 1, 10, 100, 1000 ng/ml were analyzed before and after each dose group. Samples exceeding the upper limit of quantification (1000 ng/ml) were re-analyzed after 10-fold dilution in blank plasma. All calculations were performed in Sciex OS Version 1.7.0.36606 and MS-EXCEL®.
Pharmacokinetic parameters were calculated for both compounds using the software Kinetica (version 4.4.1, Thermo Scientific) applying a non-compartmental model (NCA).

[4] = timepoint 0 h, calibration range 0.1 to 10 μM
[5] = human, Half-life time, incubation 24 h (triplicates) or 6 h (duplicates)
[6] = in vivo, iv, 3 mg/kg, single i.v.
[7] = in vivo, iv, normalized to a dose of 1 mg/kg, given 3 mg/kg i.v.

Compound: CC(=O)N[C@@H](CO)C(=O)N[C@@H](CCCNC(=N)N)C(=O)N[C@@H](CC(C)C)C(=O)N[C@@H](CCC(=O)O)C(=O)N[C@H]1CCC(=O)NCCCC[C@@H](C(=O)N[C@@H](CCCNC(=N)N)C(=O)N[C@@H](CCCNC(=N)N)C(=O)N[C@@H](CC(C)C)C(=O)N[C@H](C(=O)N[C@@H](CCC(=O)O)C(N)=O)[C@@H](C)O)NC(=O)[C@H](CC(C)C)NC(=O)[C@H](CCC(=O)O)NC1=O [SD15192, Ac-Ser-Arg-Leu-Glu-(cyclo5)Glu-Glu-Leu-(cyclo8)Lys-Arg-Arg-Leu-Thr-Glu-NH2] (Ac-SRLEEELKRRLTE-NH2; lactam 5-8)
Kd (NbALFA): 0.0551 nM
ka (NbALFA): 1.05e+07 M⁻¹ s⁻¹
kd (NbALFA): 0.000577 s⁻¹
Conc. (% of T0) ([1]; timepoint 0 h): 100.0 % of T0
Mean (compound concentration) ([1]; timepoint 0 h): 2.56
Tube 2 (compound concentration) ([1]; timepoint 0 h): 2.471
Tube 3 (compound concentration) ([1]; timepoint 0 h): 2.553
Tube 1 (compound concentration) [1, 4]: 2.667
Mean (compound concentration) ([1]; timepoint 2 h): 1.76
Tube 1 (compound concentration) ([1]; timepoint 2 h): 1.788
Tube 2 (compound concentration) ([1]; timepoint 2 h): 1.757
Tube 3 (compound concentration) ([1]; timepoint 2 h): 1.731
Mean (compound concentration) ([1]; timepoint 6 h): 0.88
Tube 1 (compound concentration) ([1]; timepoint 6 h): 0.876
Tube 2 (compound concentration) ([1]; timepoint 6 h): 0.868
Tube 3 (compound concentration) ([1]; timepoint 6 h): 0.883
Tube 1 (compound concentration) ([1]; timepoint 24 h): 0.031
Tube 2 (compound concentration) ([1]; timepoint 24 h): 0.036
Tube 3 (compound concentration) ([1]; timepoint 24 h): 0.046
remaining at 2 h, 10 µM ([1]; human): 68.6%
remaining at 6 h, 10 µM ([1]; human): 34.2%
half-life [1, 5]: 3.89 h
remaining at 2 h, 10 µM [2]: 85.9%
remaining at 6 h, 10 µM [2]: 65.7%
remaining at 24 h, 10 µM [2]: 23.9%
Conc. (% of T0) ([2]; timepoint 0 h): 100.0 % of T0
Mean (compound concentration) ([2]; timepoint 0 h): 2.70
Tube 2 (compound concentration) ([2]; timepoint 0 h): 2.705
Tube 3 (compound concentration) ([2]; timepoint 0 h): 2.658
Tube 1 (compound concentration) [2, 4]: 2.731
Mean (compound concentration) ([2]; timepoint 2 h): 2.32
Tube 1 (compound concentration) ([2]; timepoint 2 h): 2.366
Tube 2 (compound concentration) ([2]; timepoint 2 h): 2.256
Tube 3 (compound concentration) ([2]; timepoint 2 h): 2.33
Mean (compound concentration) ([2]; timepoint 6 h): 1.77
Tube 1 (compound concentration) ([2]; timepoint 6 h): 1.851
Tube 2 (compound concentration) ([2]; timepoint 6 h): 1.679
Tube 3 (compound concentration) ([2]; timepoint 6 h): 1.791
Mean (compound concentration) ([2]; timepoint 24 h): 0.64
Tube 1 (compound concentration) ([2]; timepoint 24 h): 0.637
Tube 2 (compound concentration) ([2]; timepoint 24 h): 0.656
Tube 3 (compound concentration) ([2]; timepoint 24 h): 0.638
half-life [2]: 707 min
LogEC50 (anti-ALFA VHH): 0.7765
EC50 (anti-ALFA VHH): 5.98 nM

Compound: CC(=O)N[C@@H](CO)C(=O)N[C@@H](CCCNC(=N)N)C(=O)N[C@@H](CC(C)C)C(=O)N[C@@H](CCC(=O)O)C(=O)N[C@@H](CCC(=O)O)C(=O)N[C@@H](CCC(=O)O)C(=O)N[C@@H](CC(C)C)C(=O)N[C@@H](CCCNC(=N)N)C(=O)N[C@H]1CCCCNC(=O)CC[C@@H](C(N)=O)NC(=O)[C@H]([C@@H](C)O)NC(=O)[C@H](CC(C)C)NC(=O)[C@H](CCCNC(=N)N)NC1=O [SD15193, Ac-Ser-Arg-Leu-Glu-Glu-Glu-Leu-Arg-(cyclo9)Lys-Arg-Leu-Thr-(cyclo13)Glu-NH2] (Ac-SRLEEELRKRLTE-NH2; lactam 9-13)
Kd (NbALFA): 0.0556 nM
ka (NbALFA): 1.95e+07 M⁻¹ s⁻¹
kd (NbALFA): 0.00109 s⁻¹
Conc. (% of T0) ([1]; timepoint 0 h): 100.0 % of T0
Mean (compound concentration) ([1]; timepoint 0 h): 2.81
Tube 2 (compound concentration) ([1]; timepoint 0 h): 2.845
Tube 3 (compound concentration) ([1]; timepoint 0 h): 2.795
Tube 1 (compound concentration) [1, 4]: 2.799
Mean (compound concentration) ([1]; timepoint 2 h): 2.71
Tube 1 (compound concentration) ([1]; timepoint 2 h): 2.769
Tube 2 (compound concentration) ([1]; timepoint 2 h): 2.647
Tube 3 (compound concentration) ([1]; timepoint 2 h): 2.717
Mean (compound concentration) ([1]; timepoint 6 h): 2.66
Tube 1 (compound concentration) ([1]; timepoint 6 h): 2.774
Tube 2 (compound concentration) ([1]; timepoint 6 h): 2.678
Tube 3 (compound concentration) ([1]; timepoint 6 h): 2.527
Mean (compound concentration) ([1]; timepoint 24 h): 2.09
Tube 1 (compound concentration) ([1]; timepoint 24 h): 2.387
Tube 2 (compound concentration) ([1]; timepoint 24 h): 1.983
Tube 3 (compound concentration) ([1]; timepoint 24 h): 1.888
remaining at 24 h, 10 µM ([1]; human, Li-heparin plasma): 74.2%
remaining at 2 h, 10 µM ([1]; human): 96.4%
remaining at 6 h, 10 µM ([1]; human): 94.5%
half-life ([1]; human, Flag (half-life, assay exceeded)): > 24 h
half-life [1, 5]: 56.1 h
remaining at 2 h, 10 µM [2]: 87.5%
remaining at 6 h, 10 µM [2]: 72.7%
remaining at 24 h, 10 µM [2]: 39.4%
Conc. (% of T0) ([2]; timepoint 0 h): 100.0 % of T0
Mean (compound concentration) ([2]; timepoint 0 h): 3.29
Tube 2 (compound concentration) ([2]; timepoint 0 h): 3.236
Tube 3 (compound concentration) ([2]; timepoint 0 h): 3.311
Tube 1 (compound concentration) [2, 4]: 3.315
Mean (compound concentration) ([2]; timepoint 2 h): 2.88
Tube 1 (compound concentration) ([2]; timepoint 2 h): 2.864
Tube 2 (compound concentration) ([2]; timepoint 2 h): 2.972
Tube 3 (compound concentration) ([2]; timepoint 2 h): 2.789
Mean (compound concentration) ([2]; timepoint 6 h): 2.39
Tube 1 (compound concentration) ([2]; timepoint 6 h): 2.383
Tube 2 (compound concentration) ([2]; timepoint 6 h): 2.443
Tube 3 (compound concentration) ([2]; timepoint 6 h): 2.346
Mean (compound concentration) ([2]; timepoint 24 h): 1.30
Tube 1 (compound concentration) ([2]; timepoint 24 h): 1.253
Tube 2 (compound concentration) ([2]; timepoint 24 h): 1.397
Tube 3 (compound concentration) ([2]; timepoint 24 h): 1.236
half-life [2]: 1110 min
LogEC50 (anti-ALFA VHH): 0.7818
EC50 (anti-ALFA VHH): 6.05 nM

Kd (NbALFA): 0.0194 nM
ka (NbALFA): 1.86e+07 M⁻¹ s⁻¹
kd (NbALFA): 0.000361 s⁻¹
binding with respect to NbALFA (NbALFA; in words): very good binding
half-life ([3]; female, C57BL/6NRj, plasma, iv, 3 mg/kg): 6.69 min
area under the curve (AUC) compared to the linear alpha compound ([3]; i.v., in words): much higher
clearance compared to the linear alpha compound ([3]; i.v., in words): drastically reduced
MRT inf ([3]; in vivo, iv, 3 mg/kg): 4.5 min
MRT last ([3]; in vivo, iv, 3 mg/kg): 4.47 min
Tmax ([3]; in vivo, iv, 3 mg/kg): 1 min
clearance ([3]; in vivo, iv, 3 mg/kg): 52.8 mL/min/kg
AUC(0-inf) [3, 6]: 948 ng·h/mL
AUC(0-t) [3, 6]: 947 ng·h/mL
C0 ([3]; in vivo, iv, 3 mg/kg, C0, single i.v.): 15400 ng/mL
Cmax [3, 6]: 12700 ng/mL
Vd ([3]; in vivo, iv, 3 mg/kg, Vss, single i.v., 3 mg/kg): 0.237 L/kg
Vd ([3]; in vivo, iv, 3 mg/kg, Vz, single i.v.): 0.509 L/kg
AUC(0-inf) [3, 7]: 316 ng·h/mL
AUC(0-t) [3, 7]: 316 ng·h/mL
C0 ([3]; in vivo, iv, C0, normalized to a dose of 1 mg/kg, given 3 mg/kg i.v.): 5130 ng/mL
Cmax [3, 7]: 4240 ng/mL
AUCextra ([3]; single i.v., 3 mg/kg): 0.05%
Vc ([3]; single i.v., 3 mg/kg): 0.195 L/kg
t1/2effective ([3]; single i.v., 3 mg/kg): 3.10 min
t1/2initial ([3]; single i.v., 3 mg/kg): 2.41 min
λinitial ([3]; single i.v., 3 mg/kg): 0.29 min⁻¹
λterminal ([3]; single i.v., 3 mg/kg): 0.10 min⁻¹
Compound: CC(=O)N1CCC[C@H]1C(=O)N[C@@H](CO)C(=O)N[C@@H](CCCNC(=N)N)C(=O)N[C@@H](CC(C)C)C(=O)N[C@@H](CCC(=O)O)C(=O)N[C@H]1CCC(=O)NCCCC[C@@H](C(=O)N[C@@H](CCCNC(=N)N)C(=O)N[C@@H](CC(C)C)C(=O)N[C@H](C(=O)N[C@@H](CCC(=O)O)C(N)=O)[C@@H](C)O)NC(=O)[C@H](CCCNC(=N)N)NC(=O)[C@H](CC(C)C)NC(=O)[C@H](CCC(=O)O)NC1=O [SD15341, Ac-Pro-Ser-Arg-Leu-Glu-(cyclo6)Glu-Glu-Leu-Arg-(cyclo10)Lys-Arg-Leu-Thr-Glu-NH2] (Ac-PSRLEEELRKRLTE-NH2; lactam 6-10)

Compound: Ac-SRLEEELRRRLTE-NH2 [SD15197, Ac-Ser-Arg-Leu-Glu-Glu-Glu-Leu-Arg-Arg-Arg-Leu-Thr-Glu-NH2, reference compound]
Kd (NbALFA): 0.0117 nM
ka (NbALFA): 5.05e+07 M⁻¹ s⁻¹
kd (NbALFA): 0.000593 s⁻¹
LogEC50 (anti-ALFA VHH): 0.4145
EC50 (anti-ALFA VHH): 2.6 nM
EC50 (anti-ALFA VHH; listed as parent linear ALFA peptide): 2.6 nM
